Some test systems named below: NCI-H460 lung; A498 renal; ACHN renal; SNB-75 CNS; SK-MEL-2 melanoma; MDA-MB-231 breast; OVCAR-8 ovarian; HS 578T breast; OVCAR-4 ovarian; M14 melanoma.
What all share (assay): inhibition of tumour cell growth, NCI panel, 48 h

Values joined by “and” are separate entries in the source; they are usually repeats but may differ in a detail not shown here. Equal entries are not always repeated.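 Assay format: 96-well plates, 48-hour exposure. Here, GI50 denotes the concentration required for 50% inhibition of growth. Definition used: TGI = concentration required for complete inhibition of growth.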 Some results are limits rather than exact numbers.

GI50 and TGI data for 8 compounds are collected here from PubChem BioAssay (NCI).

With `COc1ccc(-c2nn3ncccc3c2-c2ccnc(Nc3cccc(C(F)(F)F)c3)n2)cc1`, the GI50 in the assay on NCI-H460 lung is 7620 nM; with A498 renal, 4410 nM; with ACHN renal, 6700 nM; in the assay on SNB-75 CNS, above 16300 nM; with SK-MEL-2 melanoma, 8110 nM; in the assay with MDA-MB-231 breast it was 8120 nM. Also, the GI50 was 8740 nM in the assay with OVCAR-8 ovarian, 8290 nM in the assay on HS 578T breast, 8540 nM in the assay on OVCAR-4 ovarian and 9010 nM in the assay on M14 melanoma. Further, the TGI in the assay with NCI-H460 lung was above 25000 nM; in the assay on A498 renal it was above 20300 nM; in the assay with ACHN renal, above 25000 nM; with SNB-75 CNS it was above 25000 nM; in the assay with SK-MEL-2 melanoma it was 21300 nM; in the assay with MDA-MB-231 breast, above 25000 nM. The TGI in the assay on OVCAR-8 ovarian, with HS 578T breast, with OVCAR-4 ovarian and with M14 melanoma was above 25000 nM throughout.
In the case of `Cc1cc(Nc2cc(N3CCN(C)CC3)nc(C#Cc3ccccc3)n2)n[nH]1`, the GI50 was 2070 nM in the assay on NCI-H460 lung; 703 nM with A498 renal; 1060 nM with ACHN renal; 725 nM in the assay with SNB-75 CNS; 1240 nM in the assay on SK-MEL-2 melanoma; 3820 nM with MDA-MB-231 breast. Besides, the GI50 is 6500 nM in the assay with OVCAR-8 ovarian, 1740 nM with HS 578T breast, 1700 nM in the assay with OVCAR-4 ovarian and 1400 nM in the assay on M14 melanoma. Also, the TGI with NCI-H460 lung was 13000 nM; in the assay on A498 renal it was 3680 nM; in the assay on ACHN renal it was 11700 nM; with SNB-75 CNS, 2910 nM; in the assay on SK-MEL-2 melanoma it was 7900 nM; in the assay on MDA-MB-231 breast it was 16500 nM. Also, the TGI is 22300 nM with OVCAR-8 ovarian, 6220 nM in the assay with HS 578T breast, 13300 nM in the assay on OVCAR-4 ovarian and 14700 nM with M14 melanoma.
For `O=C1c2c(O)ccc(O)c2C(=O)c2c(NCCNCCO)ccc(NCCNCCO)c21`, the TGI with NCI-H460 lung was 274 nM and 332 nM and 484 nM; in the assay with A498 renal, 555 nM and 588 nM and 590 nM; with ACHN renal, 123 nM and 783 nM and 229 nM; in the assay on SNB-75 CNS, 122 nM and 541 nM and 218 nM; in the assay on SK-MEL-2 melanoma, 657 nM and 600 nM and 926 nM; with MDA-MB-231 breast, 1450 nM and 2380 nM and 1110 nM. For the same compound, the TGI is 388 nM and 414 nM and 665 nM in the assay with OVCAR-8 ovarian; 296 nM and 1880 nM and 1030 nM in the assay with HS 578T breast; 2080 nM and 744 nM and 1400 nM in the assay with OVCAR-4 ovarian; 1770 nM and 809 nM and 2110 nM in the assay on M14 melanoma. In the assay on A498 renal, the GI50 is 72.1 nM.
On to `NC(=O)c1c(NC(=O)c2cccc(C(F)(F)F)c2)sc2c1CCC(=O)C2`, for which the GI50 in the assay on NCI-H460 lung was 512 nM; in the assay on A498 renal it was 3330 nM; in the assay on ACHN renal, 322 nM; in the assay with SNB-75 CNS, 507 nM; with SK-MEL-2 melanoma, 2060 nM; with MDA-MB-231 breast, 379 nM. The GI50 in the assay on OVCAR-8 ovarian is 519 nM; with HS 578T breast, 545 nM; in the assay with OVCAR-4 ovarian it was 292 nM; in the assay on M14 melanoma, 437 nM. In addition, the TGI in the assay with NCI-H460 lung is above 100000 nM; with A498 renal, above 100000 nM; in the assay with ACHN renal, 1050 nM; in the assay on SNB-75 CNS it was 3840 nM; with SK-MEL-2 melanoma, 6250 nM; in the assay with MDA-MB-231 breast it was 2730 nM. Besides, the TGI in the assay on OVCAR-8 ovarian was above 100000 nM; in the assay on HS 578T breast it was above 100000 nM; in the assay with OVCAR-4 ovarian it was 1250 nM; in the assay on M14 melanoma, 11600 nM.
For `CC(=O)OC1Oc2cc(C)c(C)cc2-c2oc(=O)c(-c3ccccc3)cc21` (stereo not given), the GI50 was 338 nM in the assay with NCI-H460 lung; 271 nM in the assay with A498 renal; 1340 nM in the assay with ACHN renal; 210 nM with SNB-75 CNS; 572 nM in the assay with SK-MEL-2 melanoma; 584 nM in the assay with MDA-MB-231 breast. Also, the GI50 in the assay on OVCAR-8 ovarian is 545 nM; in the assay with HS 578T breast it was 244 nM; with OVCAR-4 ovarian, 3920 nM; with M14 melanoma it was 351 nM. Also, the TGI in the assay with NCI-H460 lung was 14200 nM; in the assay on A498 renal, 3110 nM; in the assay on ACHN renal, above 100000 nM; in the assay on SNB-75 CNS, 902 nM; in the assay with SK-MEL-2 melanoma it was above 63300 nM; in the assay with MDA-MB-231 breast it was 30900 nM. Also, the TGI was above 84500 nM with OVCAR-8 ovarian, 1420 nM in the assay on HS 578T breast, above 100000 nM with OVCAR-4 ovarian and above 100000 nM in the assay with M14 melanoma.
On to `CC(=O)c1c(Nc2ccc(F)c(F)c2F)[nH]c2c(F)cc(F)cc2c1=O`, for which the GI50 with NCI-H460 lung was 331 nM; with A498 renal, 206 nM; in the assay with ACHN renal, 296 nM; with SNB-75 CNS it was 289 nM; with SK-MEL-2 melanoma, 322 nM; in the assay on MDA-MB-231 breast it was 285 nM. Moreover, the GI50 was 365 nM in the assay on OVCAR-8 ovarian, 293 nM with HS 578T breast, 320 nM with OVCAR-4 ovarian and 352 nM in the assay with M14 melanoma. Further, the TGI in the assay on NCI-H460 lung was 11200 nM; in the assay on A498 renal, 575 nM; with ACHN renal it was above 26300 nM; in the assay on SNB-75 CNS it was 8520 nM; in the assay on SK-MEL-2 melanoma it was 1350 nM; in the assay on MDA-MB-231 breast, 1770 nM. Further, the TGI was above 100000 nM with OVCAR-8 ovarian, 8690 nM in the assay on HS 578T breast, above 100000 nM in the assay on OVCAR-4 ovarian and 4060 nM in the assay with M14 melanoma.
For the compound `COc1ccccc1-c1nccc(COc2ccccc2C[C@@H](Oc2ncnc3sc(-c4ccc(F)cc4)c(-c4ccc(OCCN5CCN(C)CC5)c(Cl)c4C)c23)C(=O)O)n1`, the GI50 with NCI-H460 lung is 2090 nM; in the assay with ACHN renal it was 5070 nM; with SNB-75 CNS, 34.8 nM; in the assay on SK-MEL-2 melanoma, below 11.4 nM; in the assay on MDA-MB-231 breast, 1610 nM; in the assay with OVCAR-8 ovarian, 2900 nM. Besides, the GI50 in the assay on HS 578T breast is 515 nM; with OVCAR-4 ovarian, 3550 nM; in the assay with M14 melanoma, 1730 nM. In addition, the TGI in the assay on NCI-H460 lung came to 5840 nM; with A498 renal, 522 nM; in the assay with ACHN renal, 15300 nM; in the assay with SNB-75 CNS, 1290 nM; with SK-MEL-2 melanoma, 36.7 nM; in the assay with MDA-MB-231 breast, 3290 nM. Besides, the TGI was above 28400 nM with OVCAR-8 ovarian, 3290 nM in the assay on HS 578T breast, 14600 nM in the assay with OVCAR-4 ovarian and 4050 nM in the assay with M14 melanoma.
As for `CN1CCN(CCCOc2ccc3ncnc(Nc4ccc(Oc5cccc(F)c5)c(Cl)c4)c3c2)CC1`, the GI50 in the assay on NCI-H460 lung was 1770 nM; with A498 renal it was 1250 nM; in the assay with ACHN renal, 1020 nM; in the assay on SNB-75 CNS, 1400 nM; in the assay on SK-MEL-2 melanoma, 1950 nM; in the assay on MDA-MB-231 breast it was 1700 nM. In addition, the GI50 in the assay with OVCAR-8 ovarian was 2190 nM; with HS 578T breast it was 1760 nM; with OVCAR-4 ovarian, 1620 nM; in the assay with M14 melanoma it was 1790 nM. Moreover, the TGI in the assay with NCI-H460 lung was found to be 3300 nM; in the assay on A498 renal it was 2740 nM; in the assay with ACHN renal it was 2190 nM; in the assay on SNB-75 CNS, 2750 nM; in the assay on SK-MEL-2 melanoma, 4040 nM; in the assay on MDA-MB-231 breast, 3160 nM. For the same compound, the TGI in the assay on OVCAR-8 ovarian was 6420 nM; with HS 578T breast, 4260 nM; in the assay on OVCAR-4 ovarian, 3600 nM; in the assay on M14 melanoma, 3620 nM.
